Measurements: patent US4340606A, “3-(p-Alkylsulfonylphenyl)oxazolidinone derivatives as antibacterial agents” (E. I. Du Pont de Nemours and Company, priority 1980, dated 1982)
≈ marks a conversion by molar mass, not a printed value. Structures can show the parent of a compound that is named as a salt.

Tests used:
[1] = system: Staphylococcus epidermidis; test: 24-hour minimum inhibitory concentration, microdilution method, Mueller-Hinton broth; format: cell-based; conditions: S. epidermidis, read-out: In-Vitro MIC
Experimental: The compounds listed below in Table 1 were tested for in vivo and in vitro antibacterial activity. The twenty-four hour minimum inhibitory in vitro concentrations (MIC) for a test strain of Staphylococcus epidermidis of the compounds were determined using a standard microdilution method with Mueller-Hinton broth. This method is described in Conrath, Theodore B., 1972 Handbook of Microtiter Procedures, Dynatech Corporation, Cambridge, Mass., the disclosure of which is herein incorporated by reference. | ^1 24Hour minimum inhibitory concentration: determined by | microdilution method with S. epidermidis as the test organism.

[2] = system: Staphylococcus aureus; test: in vivo antibacterial activity, mice infected intraperitoneally, oral dosing; conditions: oral at infection and 4 hours later, Reed-Muench, mortality, read-out: In-Vivo ED50, S. aureus
Experimental: (§1) The in vivo antibacterial activity of the compounds was determined as follows.
(§2) Cultures of Staphylococcus aureus or Escherichia coli were grown from stored frozen stocks in trypticase soy broth (BBL), a standard bacteriological growth medium, with shaking until a turbidity of optical density (650μ) of 0.4-0.5 was attained. These cultures were centrifuged and resuspended in either 50% hog gastric mucin for Staphyloccus aureus or saline for Escherichia coli. These suspensions were injected intraperitoneally at dilutions calculated to cause 90-100% mortality within 7 days of the mice of the control groups.
(§3) The compounds were suspended or dissolved in 0.25% Methocel, 15 CPS, at various concentrations. Mice were dosed orally by intubation at the time of infection and again four hours later. Mortality was recorded daily until test termination. The estimated dose 50 (ED50) was calculated by the Reed-Muench method, as described in Reed, L. J. and Muench, H., American Journal of Hygiene, 27, 493-497 (1938), the disclosure of which is herein incorporated by reference.

[3] = system: Escherichia coli; test: as above; conditions: oral at infection and 4 hours later, Reed-Muench, mortality, read-out: In-Vivo ED50, E. coli
Experimental: as §1, §2, §3

[4] = system: Bacteroides sp.; test: in-vitro susceptibility of anaerobic clinical isolates, agar dilution; format: cell-based; conditions: 48-hour, 32 isolates (chloromethyl compound), 28 isolates (hydroxymethyl compound)
Experimental: (§4) The inhibitory activity for anaerobic bacteria of 5-chloromethyl-3-(4-difluoromethylsulfonyl)phenyl-2-oxazolidinone and (1)-5-hydroxymethyl-3-(4-methylsulfonyl)phenyl-2-oxazolidinone was determined using the agar dilution method described in Barry, Arthur L., The Antimicrobic Susceptibility Test: Principles and Practices, 1976 Lea & Febiger, Philadelphia.
(§5) ^1 48hour minimum inhibitory concentration determined by agar dilutio

[5] = system: Fusobacterium sp.; test: as above; format: cell-based; conditions: 48-hour, 4 isolates tested for each compound
Experimental: as §4, §5

[6] = system: Clostridium sp.; test: as above; format: cell-based; conditions: 48-hour, 4 isolates tested for each compound
Experimental: as §4, §5

[7] = system: Gram positive cocci; test: as above; format: cell-based; conditions: 48-hour, 7 isolates tested for each compound
Experimental: as §4, §5

[8] = system: anaerobic bacteria; test: inhibitory activity for anaerobic bacteria, agar dilution; format: cell-based; conditions: in words, from Table 3
Experimental: as §4

[9] = system: Pseudomonas sp.; test: in-vitro susceptibility of clinical isolates, agar dilution; format: cell-based; conditions: 24-hour, 35° C., 78 isolates
Experimental: (§6) The in-vitro antibacterial activity spectrum of (1)-5-Hydroxymethyl-3-(4-methylsulfonyl)phenyl-2-oxazolidinone, determined by an agar dilution procedure, is shown in table 2. This procedure is known in the art and can be summarized as follows. […] The agar plates were inoculated with a 0.001 ml calibrated loopful of bacterial inoculum diluted to contain 5×10^6 colony forming units (CFU) per ml. […] The test organisms included clinical bacterial isolates representing two gram positive and nine gram negative genera.
(§7) ^1 MIC: Minimum Inhibitory Concentration determined by agar dilution

[10] = system: Providencia sp.; test: as above; format: cell-based; conditions: 24-hour, 35° C., 12 isolates
Experimental: as §6, §7

[11] = system: Salmonella sp.; test: as above; format: cell-based; conditions: 24-hour, 35° C., 6 isolates
Experimental: as §6, §7

[12] = system: E. coli; test: as above; format: cell-based; conditions: Escherichia coli, 24-hour, 35° C., 86 isolates
Experimental: as §6, §7

[13] = system: Streptococci sp.; test: as above; format: cell-based; conditions: 24-hour, 35° C., 12 isolates
Experimental: as §6, §7

[14] = system: Enterobacter sp.; test: as above; format: cell-based; conditions: 24-hour, 35° C., 41 isolates
Experimental: as §6, §7

[15] = system: Proteus sp.; test: as above; format: cell-based; conditions: 24-hour, 35° C., 88 isolates
Experimental: as §6, §7

[16] = system: Shigella sp.; test: as above; format: cell-based; conditions: 24-hour, 35° C., 9 isolates
Experimental: as §6, §7

[17] = system: Staphylococci sp.; test: as above; format: cell-based; conditions: 24-hour, 35° C., 37 isolates
Experimental: as §6, §7

[18] = system: Hemophilus influenzae; test: as above; format: cell-based; conditions: Haemophilus influenzae, 24-hour, 35° C., 4 isolates
Experimental: as §6, §7

[19] = system: Serratia sp.; test: as above; format: cell-based; conditions: 24-hour, 35° C., 44 isolates
Experimental: as §6, §7

[20] = system: Klebsiella sp.; test: as above; format: cell-based; conditions: 24-hour, 35° C., 68 isolates
Experimental: as §6, §7

[21] = system: Neisseria sp.; test: as above; format: cell-based; conditions: 24-hour, 35° C., 42 isolates
Experimental: as §6, §7

| SMILES | MIC [1] [µg/mL] | ED50 [2] [mg/kg] | further results |
| --- | --- | --- | --- |
| CS(=O)(=O)c1ccc(N2CC(CO)OC2=O)cc1 (racemic) [5-Hydroxymethyl-3-(4-methylsulfonylphenyl)-2-oxazolidinone] | 12.5 (≈ 46.1 µM) | 18 | ED50 [3]: 40 mg/kg |
| CS(=O)(=O)c1ccc(N2CC(COC(=O)CCC(=O)O)OC2=O)cc1 (racemic) [(dl)-3-(4-Methylsulfonylphenyl)-2-oxooxazolidin-5-ylmethyl 1,4-Butanedioic Acid Mono Ester, Mono Sodium Salt] | > 50 | 26 | ED50 [3]: 40 mg/kg |
| CS(=O)(=O)c1ccc(N2CC(COC(=O)CCC(=O)O)OC2=O)cc1 (single isomer, unassigned) [l-3-(4-Methylsulfonylphenyl)-2-oxooxazolidin-5-ylmethyl 1,4-Butanediodic Acid Mono Ester, Mono Sodium Salt] | – | 20 | – |
| C[C@H](N)C(=O)OCC1CN(c2ccc(S(C)(=O)=O)cc2)C(=O)O1 (stereo partly drawn) [5-(L)-Alanyloxymethyl-(1)-3-(4-methylsulfonyl)phenyl-2-oxazolidinone trifluoroacetic acid salt] | 25 | 14 | – |
| CC(=O)OCC1CN(c2ccc(S(C)(=O)=O)cc2)C(=O)O1 (stereo not drawn) [5-Acetoxymethyl-3-(4-methylsulfonyl)phenyl-2-oxazolidinone] | > 50 | 100 | – |
| CS(=O)(=O)c1ccc(N2CC(CBr)OC2=O)cc1 (stereo not drawn) [5-Bromomethyl-3-(4-methylsulfonyl)phenyl-2-oxazolidinone] | 5 (≈ 15 µM) | – | – |
| O=C1OC(CCl)CN1c1ccc(S(=O)(=O)C(F)F)cc1 (stereo not drawn) [5-Chloromethyl-3-(4-difluoromethylsulfonylphenyl)-2-oxazolidinone] | 2.5 (≈ 7.68 µM) | 20 | MIC [4]: 1.8 µg/mL (≈ 5.53 µM); MIC [5]: 0.06 µg/mL (≈ 0.184 µM); MIC [6]: 1 µg/mL (≈ 3.07 µM); MIC [7]: 0.7 µg/mL (≈ 2.15 µM); inhibition of anaerobic bacterial growth [8]: potent inhibitors of anaerobic bacterial growth |
| CS(=O)(=O)c1ccc(N2CC(CCl)OC2=O)cc1 (stereo not drawn) [5-Chloromethyl-3-(4-methylsulfonylphenyl)-2-oxazolidinone] | 5 (≈ 17.3 µM) | 29 | ED50 [3]: 63 mg/kg |
| O=C1OC(CCl)CN1c1ccc(S(=O)(=O)C(F)(F)F)cc1 (stereo not drawn) [5-Chloromethyl-3-(4-trifluoromethylsulfonylphenyl)-2-oxazolidinone] | 4.7 (≈ 13.7 µM) | 105 | – |
| O=C1OC(CCl)CN1c1ccc(S(=O)(=O)C(F)(F)C(F)F)cc1 (stereo not drawn) [5-Chloromethyl-3-[4-(1,1,2,2-tetrafluoroethylsulfonyl)phenyl]-2-oxazolidinone] | 10 (≈ 26.6 µM) | 92 | – |
| CS(=O)(=O)c1ccc(N2CC(CF)OC2=O)cc1 (stereo not drawn) [5-Fluoromethyl-3-(4-methylsulfonyl)phenyl-2-oxazolidinone] | 20 (≈ 73.2 µM) | 35 | – |
| O=C1OC(CO)CN1c1ccc(S(=O)(=O)C(F)F)cc1 (stereo not drawn) [5-Hydroxymethyl-3-(4-difluoromethylsulfonylphenyl)-2-oxazolidinone] | 3.1 (≈ 10.1 µM) | 23 | ED50 [3]: 27 mg/kg |
| C[S+]([O-])c1ccc(N2CC(CO)OC2=O)cc1 (stereo not drawn) [5-Hydroxymethyl-3-(4-methylsulfinylphenyl)-2-oxazolidinone] | 50 (≈ 196 µM) | 27 | – |
| O=C1OC(CO)CN1c1ccc(S(=O)(=O)C(F)(F)F)cc1 (stereo not drawn) [5-Hydroxymethyl-3-(4-trifluoromethylsulfonylphenyl)-2-oxazolidinone] | 12.5 (≈ 38.4 µM) | 20 | – |
| O=C1OC(CO)CN1c1ccc(S(=O)(=O)C(F)(F)C(F)F)cc1 (stereo not drawn) [5-Hydroxymethyl-3-[4-(1,1,2,2-tetrafluoroethylsulfonyl)phenyl]-2-oxazolidinone] | 12.5 (≈ 35 µM) | 108 | – |
| CCS(=O)(=O)c1ccc(N2CC(CCl)OC2=O)cc1 (stereo not drawn) [5-chloromethyl-3-(4-ethylsulfonyl)phenyl-2-oxazolidinone] | 50 (≈ 165 µM) | – | – |
| C[S+]([O-])c1ccc(N2CC(CCl)OC2=O)cc1 (stereo not drawn) [5-chloromethyl-3-(4-methylsulfinyl)phenyl-2-oxazolidinone] | 25 (≈ 91.3 µM) | – | – |
| CS(=O)(=O)c1ccc(N2C[C@H](CO)OC2=O)cc1 [R-(-)-3-(4-Methylsulfonylphenyl)-5-hydroxymethyl-2-oxazolidinone] | 12.5 (≈ 46.1 µM) | 9 | MIC [4]: 3.4 µg/mL (≈ 12.5 µM); MIC [5]: 0.3 µg/mL (≈ 1.11 µM); MIC [6]: 7 µg/mL (≈ 25.8 µM); MIC [7]: 1.3 µg/mL (≈ 4.79 µM); inhibition of anaerobic bacterial growth [8]: potent inhibitors of anaerobic bacterial growth; ED50 [3]: 25 mg/kg; MIC [9]: ≥ 128 µg/mL; MIC [10]: 26.7 µg/mL (≈ 98.4 µM); MIC [11]: 16 µg/mL (≈ 59 µM); MIC [12]: 21.7 µg/mL (≈ 80 µM); MIC [13]: 3.7 µg/mL (≈ 13.6 µM); MIC [14]: 37.9 µg/mL (≈ 140 µM); MIC [15]: 21.7 µg/mL (≈ 80 µM); MIC [16]: 11.6 µg/mL (≈ 42.8 µM); MIC [17]: 3.8 µg/mL (≈ 14 µM); MIC [18]: 16 µg/mL (≈ 59 µM); MIC [19]: ≥ 108 µg/mL; MIC [20]: 37.5 µg/mL (≈ 138 µM); MIC [21]: 10.5 µg/mL (≈ 38.7 µM) |
